Assay results published in patent US20260286302A1, “METHODS FOR PRODUCING A SUPER CENTRAL MEMORY CD8 T CELL SUBTYPE BY POLY(ADP-RIBOSE) POLYMERASE (PARP) INHIBITION AND USES THEREOF” (Georgetown University, priority 2023, published 2026).

Key:
[1] = test system: pMel-1 CD8 T cells; assay: Seahorse assays (OCR, ECAR); assay type: cell-based, mouse; conditions: PARPi-induced TCM^sup vs gp100-induced TCM
Description: CD8 T cells were activated with gp100 peptide with/without PARPi for 48 h, followed by mitochondrial stress tests (SeaHorse Bioscience), performed as per the manufacturer's specifications. OCR and ECAR were measured with an XFp flux analyzer (Seahorse Bioscience). For all assays, 160,000 cell per ml were plated onto culture plates using Cell-Tak (BD Biosciences). OCR and ECAR were measured in unbuffered DMEM (Agilent Biotechnologies) supplemented with 10 mM D-glucose (Sigma-Aldrich), 10 mM L-glutamine and 2.5 mM pyruvate, as indicated. The rates of FAO were determined in variously treated cells, as described above, using a Seahorse XF Palmitate-BSA FAO Reagent kit, used according to the manufacturer's instructions (Agilent Biotechnologies).

[2] = test system: pMel-1 CD8 T cells; assay: RT-PCR gene expression in TCM^sup versus TCM; assay type: cell-based, mouse; conditions: TCM^sup vs gp100-induced TCM
From the text: Total RNA was extracted from gp100 or gp100 plus PARPi-activated CD8 T cells using the RNeasy Mini Kit (Qiagen, catalog no. 74004) following the manufacturer's instructions. The extraction included a digestion step with DNase I to prevent subsequent amplification of genomic DNA. One μg total RNA was subjected to single-strand complementary DNA synthesis using High-Capacity cDNA Reverse Transcription Kit (Thermo Fisher, catalog no. 4368814). The Taqman® gene expression assay from Applied Biosystems was used for qrtPCR, and primer pairs (catalog no. 4331182) from Applied Biosystems were used to detect gene expression of Eomes (#Mm01351984-m1), Acot1 (#Mm0162271-S1), Cpt1a (#Mm0123183-m1), Klf2 (#Mm00500486-g1), CD62L (#Mm00441291-m1),CCR7 (#Mm99999130-s1), and Cdkn1b (#Mm00438168-m1). Data were procured using StepOnePlus Real-Time PCR System from Applied Biosystems and normalized to the geometric mean of the housekeeping gene beta-actin (β-actin) (#Mm02619580-g1).

[3] = test system: CD8+ T cells in TME of B16F10 tumors; assay: Immune profiling of the TME, B16F10 tumor-bearing mice; assay type: in vivo, mouse
From the text: Two-to-three days after the second vaccination, mice in the various groups were euthanized and tumors were collected.
A total of 0.1-0.2×10^6 cells per sample were stained for Live/Dead staining followed by fixation and permeabilization. For IFNγ and granzyme B (Gzm B) staining, BD Cytofix/Cytoperm (catalog no. 51-2090KZ) and BD Perm/Wash (catalog no. 51-2091KZ) buffer set were used according to the manufacturer's instructions (BD Pharmingen). CD8^+ T cells from tumor samples were stained similarly. Data acquisition was performed on a BD LSR II flow cytometer using the software FACS Diva v.9.0. Results were analyzed using FlowJo software (TreeStar). MitoFM, a green-fluorescent mitochondrial stain, which localizes to mitochondria, was used as described previously (Sukumar et al., Cell Metab 23 (1): 63-76, 2016).

[4] = test system: pMel-1 CD8 T cells; assay type: cell-based
Description: For ACT experiments, CD8+ T cells from pMel-1 mice were activated with gp100 peptide with and without PARPi for 48 h. Based on their CD44 and CD62L expression, cells were sorted by FACS and transferred into 9-day-old B16F10 melanoma-bearing mice tumor-bearing mice (1×10^6 cells per mouse). Tumor growth and survival of mice were monitored.
A total of 0.1-0.2×10^6 cells per sample were stained for Live/Dead staining followed by fixation and permeabilization. […] CD8^+ T cells from tumor samples were stained similarly. Data acquisition was performed on a BD LSR II flow cytometer using the software FACS Diva v.9.0. Results were analyzed using FlowJo software (TreeStar). […]

Structure (SMILES): O=C(c1cc(Cc2n[nH]c(=O)c3ccccc23)ccc1F)N1CCN(C(=O)C2CC2)CC1 [olaparib]
- extracellular acidification rate (ECAR; Glycolysis) [1]: decrease
- oxygen consumption rate (OCR; OXPHOS) [1]: significant increase
- FOXO1-regulated memory genes (Cd62l, Klf2, Tcf7, Ccr7) [2]: upregulated
- expression of Acot1 and Cpt1α [2]: significantly higher
- number of total and antigen-specific CD8+ T cells in TME ([3]; B16, vaccinated in the presence of PARPi vs either treatment alone): significant increase
- IFNγ+ and granzyme B+ total and antigen-specific CD8+ T cells ([3]; B16F10, PARPi given with the vaccine): enhanced functionality
- vaccine-induced central memory CD8 T cells in the TME ([3]; B16F10, PARPi with vaccine): increased
- proliferation of CD8 T cells as determined by Ki67 expression ([3]; B16F10 TME): significant decrease
- toxicity (percentage of live cells) ([4]; 48 h time point): did not show any significant toxicity
- phenotype of CD44intCD62Lint intermediate population ([4]; 96 h after PARPi treatment): shifted more toward CD44^hiCD62L^hi population
- expression of memory markers Eomes, CCR7 and Bcl2 ([4]; CD44hiCD62Lhi population compared to TCM, 48 h): significantly increased
- mitochondrial mass (MitoFM) ([4]; TCM^sup cells): increase
- PGC1α expression ([4]; TCM^sup cells vs TCM from gp100): increase
- level of γH2AX ([4]; activated pMel-1 CD8 T cells): increase
- IFNγ and Gzm B in PARPi-induced CD44hiCD62Lhi cells ([4]; compared to TCM, 48 h): significantly higher
- IFNγ and Gzm B expression on activated CD8 T cells ([4]; compared to gp100 alone, 48 h): significant increase
- cell cycle ([4]; gp100-activated, 48 h): arrested in the G2/M phase
- proliferation capacity (Ki67) ([4]; gp100-activated, 48 h): significantly reduced
- percentage of CD44hiCD62Lhi TCM CD8 T cell population ([4]; gp100-activated, 48 h of treatment, for PARPi concentration-dependent): increase
